Tests used:
mouse V79 cells = conditions: Mitchell et al., 2000; cited from earlier work
[1] = tested on: H2O2-induced angiogenesis in the CAM model; test: H2O2-induced angiogenesis in the chick chorioallantoic membrane (CAM) model; format: in vivo
Experimental: Neovascularization was examined by previously described methods (see references at the end of Example 5). Ten-day-old fertilized chicken eggs were incubated at 37° C. with 55% relative humidity. In the dark with the help of candling lamp and using a hypodermic needle a small hole was punctured in the shell covering the air sac. A second hole was punctured on the wider side of the egg above an avascular area of the embryonic membrane. An artificial air sac was created below the second hole by applying gentle vacuum to the first hole using a small rubber squeeze bulb. The vacuum caused the separation of chorioallantoic membrane (CAM) from the shell. An approximately 1.0 cm^2 widow was cut in the shell over the dropped CAM with the use of a mini drill. The underlying CAM was accessed through this small window.
Filter disks were punched using a small puncher from filter paper #1 (Whatman International, United Kingdom). Filter disks were soaked in 3 mg/ml cortisone acetate solution (95% ethanol and water) and air-dried under sterile condition. For inducing angiogenesis, sterile filter disks were saturated with bFGF (1 μg/ml) or other pro-angiogenesis factors and control disks were saturated with PBS without Calcium and Magnesium.
Using sterile forceps one filter/CAM was placed from the window. The window was sealed with Highland brand transparent tape. After 24 hr, 10-25 µl of test agent (inhibitor) was injected intravenously or added topically into the CAM membrane of bFGF or other pro-angiogenesis factors stimulated CAMs. • Control filter disks received PBS without Calcium and Magnesium. • After 48 hr, CAM tissue directly beneath filter disk was harvested and placed in a 35-mm Petri dish. Eight-Ten eggs/treatment group was used.
A pro-angiogenic agent (see Examples, below) was added to induce new blood vessel branches on the CAM of 10-day old embryos. Sterile disks of #1 filter paper (Whatman International, United Kingdom) were pre-treated with 3 mg/ml cortisone acetate, and air dried under sterile conditions. The disks were then suspended in PBS (Phosphate Buffered Saline) and placed on growing CAMs. Filters treated with TPH (TEMPOL-H) or TEMPOL and/or H2O2 or TPH and/or bFGF or VEGF were placed on the first day of the 3-day incubation.
Digital Images and Microscopic analysis of CAM sections: CAM sections from Petri dish were examined using SV6 stereomicroscope (Karl Zeiss) at 50× magnification. Digital images were captured using a 3-CCD color video camera system (Toshiba America, New York, N.Y.). These images were analyzed using Image-Pro Plus software (Media Cybernetics). The number of branch points in blood vessels within the circular region superimposed to the area of a filter disk was counted for each section. After incubation at 37° C. with 55% relative humidity for 3 days, the CAM tissue directly beneath each filter disk was resected from control and treated CAM samples. Tissues were washed three times with PBS. Sections were placed in a 35-mm Petri dish (Nalge Nunc; Rochester, N.Y.) and were examined under a SV6 stereomicroscope (Karl Zeiss; Thornwood, N.Y.) at 50× magnification. Digital images of CAM sections adjacent to filters were collected using a 3-CCD color video camera system (Toshiba America; New York, N.Y.) and analyzed with the Image-Pro Plus software (Media Cybernetics; Silver Spring, Md.). The number of vessel branch points contained in a circular region equal to the area of a filter disk was counted for each section. Percent inhibition data are expressed as the quotient of the experimental value minus the negative control value divided by the difference between the positive control value and the negative control value. One image was counted in each CAM preparation, and findings from eight CAM preparations were analyzed for each treatment condition. In addition, each experiment was performed three times. […]

[2] = In vitro stability of Compound 1 in human plasma; format: in vitro ADME; conditions: formed from OT-551 (Compound 1, 1000 ng/mL)
Experimental: (§1) The active metabolite of Compound 1 (Cyclopropanecarboxylic acid 1-hydroxy-2,2,6,6-tetramethyl-piperidin-4-yl ester) is TPH. The objective of this analysis was to determine the in vitro half-life of Compound 1 in rat, rabbit, dog, and human plasma under standardized incubation conditions.
(§2) Compound 1 was incubated with pooled rat, rabbit, dog, and human plasma for various times under standardized incubation conditions. Pre-labeled tubes containing pooled plasma from rats, rabbits, dogs, and humans were pre-incubated in a shaking 37° C. water bath. A Compound 1 solution was added to the tubes at a final concentration of 1000 ng/mL. Time zero samples (n=5) were immediately removed and transferred into tubes containing a stabilizer solution (DTPA, acetylcysteine and ascorbic acid), the LC/MS/MS assay internal standard and methanol. […] The tubes were vortexed, placed on ice, followed by centrifugation. One hundred-μL aliquots of the supernatant were transferred into HPLC sample vials. Additional tubes (n=5 at each time point) were incubated for 5, 10, 20, 30, 60, 120, and 240 minutes at 37° C. and thereafter processed. The amount of Compound 1 and TPH in each incubated sample was quantified using validated LC/MS/MS assays.

[3] = In vitro stability of Compound 1 in rabbit plasma; format: in vitro ADME; conditions: formed from OT-551 (Compound 1, 1000 ng/mL)
Experimental: as §1, §2

[4] = tested on: selenite induced cataract; conditions: mice; cited from earlier work
[5] = H2O2 (88 μM, 30 ng) + 100 μg test agent
[6] = H2O2 (88 μM, 30 ng) + 200 μg test agent
[7] = H2O2 (88 μM, 30 ng) + 400 μg test agent
[8] = H2O2 (88 μM, 30 ng) + 800 μg test agent

CC1(C)CC(O)CC(C)(C)N1O [TPH]
radioprotection of mouse V79 cells (mouse V79 cells): did not provide any radioprotection
inhibition of angiogenesis induced by super-maximal concentrations of H2O2 ([1]; CAM model, Tables 1A and 1B): effectively inhibited
% Inhibition ± SD [1, 5]: 28.0 ± 13.6 %
Branch pts ± SEM [1, 5]: 155 ± 14.4
% Inhibition ± SD [1, 6]: 32.9 ± 8.4 %
Branch pts ± SEM [1, 6]: 151.3 ± 15.3
% Inhibition ± SD [1, 7]: 44.7 ± 6.6 %
Branch pts ± SEM [1, 7]: 137.2 ± 6.9
% Inhibition ± SD [1, 8]: 55.7 ± 7.2 %
Branch pts ± SEM [1, 8]: 127.3 ± 6.4
Concentration of TPH in plasma ([2]; incubation 0 min): 48.76 ± 2.84 ng/mL
Concentration of TPH in plasma ([2]; incubation 5 min): 186.71 ± 4.58 ng/mL
Concentration of TPH in plasma ([2]; incubation 10 min): 241.99 ± 8.05 ng/mL
Concentration of TPH in plasma ([2]; incubation 20 min): 310.10 ± 8.54 ng/mL
Concentration of TPH in plasma ([2]; incubation 30 min): 365.53 ± 14.44 ng/mL
Concentration of TPH in plasma ([2]; incubation 60 min): 449.85 ± 9.73 ng/mL
Concentration of TPH in plasma ([2]; incubation 120 min): 519.12 ± 19.52 ng/mL
Concentration of TPH in plasma ([2]; incubation 240 min): 501.39 ± 11.33 ng/mL
Concentration of TPH in plasma ([3]; incubation 0 min): 270.55 ± 35.45 ng/mL
Concentration of TPH in plasma ([3]; incubation 5 min): 587.17 ± 21.99 ng/mL
Concentration of TPH in plasma ([3]; incubation 10 min): 604.21 ± 21.99 ng/mL
Concentration of TPH in plasma ([3]; incubation 20 min): 590.06 ± 40.97 ng/mL
Concentration of TPH in plasma ([3]; incubation 30 min): 533.01 ± 117.40 ng/mL
Concentration of TPH in plasma ([3]; incubation 60 min): 569.19 ± 32.96 ng/mL
Concentration of TPH in plasma ([3]; incubation 120 min): 525.63 ± 10.31 ng/mL
Concentration of TPH in plasma ([3]; incubation 240 min): 477.54 ± 40.95 ng/mL
prevention of selenite induced cataract [4]: effective

From patent publication US20070197599A1, “HYDROXYLAMINES AND DERIVATIVES AS ANTI-ANGIOGENIC AGENTS” (priority 2006, published 2007)
